Results taken from publication PMC4457528, “Identification of Novel Small Molecule Inhibitors of Oncogenic RET Kinase” (PLoS ONE, 2015).
Read-outs that look alike come from different tables or passages of the source.

Assays:
Assay in all cases: KinomeScan kinase panel, single concentration 10 µM
Type in all cases: binding
KinomeScan kinase panel [1] = target: T1, KinomeScan kinase panel (Homo sapiens, UniProt Q9H093); details: 10 µM
T1 construct: purchased DiscoveRx (KinomeScan)
T1 sequence (Q9H093 1-628): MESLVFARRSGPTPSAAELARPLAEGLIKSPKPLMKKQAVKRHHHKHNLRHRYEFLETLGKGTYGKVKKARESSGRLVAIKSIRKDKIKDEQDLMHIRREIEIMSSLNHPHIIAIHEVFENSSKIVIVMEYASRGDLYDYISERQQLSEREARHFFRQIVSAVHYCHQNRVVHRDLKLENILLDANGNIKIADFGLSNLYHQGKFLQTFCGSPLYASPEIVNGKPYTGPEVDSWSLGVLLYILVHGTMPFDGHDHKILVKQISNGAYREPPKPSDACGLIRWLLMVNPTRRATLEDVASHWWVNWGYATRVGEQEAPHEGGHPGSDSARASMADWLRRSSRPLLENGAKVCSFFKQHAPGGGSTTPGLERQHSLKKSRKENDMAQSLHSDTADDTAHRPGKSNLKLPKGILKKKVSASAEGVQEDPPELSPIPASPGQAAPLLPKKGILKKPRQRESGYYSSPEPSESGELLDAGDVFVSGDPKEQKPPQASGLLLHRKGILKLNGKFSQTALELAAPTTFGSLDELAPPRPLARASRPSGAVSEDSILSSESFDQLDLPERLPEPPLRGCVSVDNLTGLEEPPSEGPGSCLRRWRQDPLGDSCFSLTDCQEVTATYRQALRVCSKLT

KinomeScan kinase panel [2] = target: T2, KinomeScan kinase panel (Homo sapiens, UniProt P23458)
T2 construct: purchased DiscoveRx (KinomeScan)
T2 sequence (P23458 whole entry): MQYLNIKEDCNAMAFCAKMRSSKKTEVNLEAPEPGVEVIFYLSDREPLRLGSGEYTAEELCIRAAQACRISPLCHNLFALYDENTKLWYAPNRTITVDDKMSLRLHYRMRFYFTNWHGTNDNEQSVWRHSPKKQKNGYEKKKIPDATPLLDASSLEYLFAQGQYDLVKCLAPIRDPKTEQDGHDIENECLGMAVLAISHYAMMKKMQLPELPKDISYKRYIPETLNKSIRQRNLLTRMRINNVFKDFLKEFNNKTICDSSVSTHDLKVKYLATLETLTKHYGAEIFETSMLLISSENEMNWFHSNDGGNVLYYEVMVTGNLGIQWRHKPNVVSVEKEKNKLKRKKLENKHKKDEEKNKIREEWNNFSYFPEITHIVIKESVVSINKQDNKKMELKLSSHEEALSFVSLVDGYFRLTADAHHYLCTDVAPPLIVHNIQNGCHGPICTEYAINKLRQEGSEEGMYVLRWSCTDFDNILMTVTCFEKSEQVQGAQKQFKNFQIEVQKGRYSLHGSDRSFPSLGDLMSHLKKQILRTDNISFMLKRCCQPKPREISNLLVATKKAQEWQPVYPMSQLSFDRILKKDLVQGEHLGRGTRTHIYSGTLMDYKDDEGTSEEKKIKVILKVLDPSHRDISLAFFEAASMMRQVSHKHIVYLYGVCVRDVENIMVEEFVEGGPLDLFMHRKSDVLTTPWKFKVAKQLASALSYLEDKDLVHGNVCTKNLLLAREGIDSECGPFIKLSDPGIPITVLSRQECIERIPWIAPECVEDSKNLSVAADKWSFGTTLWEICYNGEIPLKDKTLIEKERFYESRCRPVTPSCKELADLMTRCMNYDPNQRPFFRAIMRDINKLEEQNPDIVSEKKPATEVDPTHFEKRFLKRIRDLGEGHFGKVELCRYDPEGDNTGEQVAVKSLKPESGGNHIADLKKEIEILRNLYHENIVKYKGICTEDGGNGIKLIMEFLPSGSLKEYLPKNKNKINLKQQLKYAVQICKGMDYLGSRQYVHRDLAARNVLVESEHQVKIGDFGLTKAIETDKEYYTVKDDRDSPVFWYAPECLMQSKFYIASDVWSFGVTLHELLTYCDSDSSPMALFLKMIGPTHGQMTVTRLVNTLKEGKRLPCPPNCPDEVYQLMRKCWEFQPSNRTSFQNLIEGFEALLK

KinomeScan kinase panel [3] = target: T3, KinomeScan kinase panel (Homo sapiens, UniProt P11362); details: FGFR1, 10 µM; read-out: score (%)
T3 construct: purchased DiscoveRx (KinomeScan)
T3 sequence (P11362 22-822): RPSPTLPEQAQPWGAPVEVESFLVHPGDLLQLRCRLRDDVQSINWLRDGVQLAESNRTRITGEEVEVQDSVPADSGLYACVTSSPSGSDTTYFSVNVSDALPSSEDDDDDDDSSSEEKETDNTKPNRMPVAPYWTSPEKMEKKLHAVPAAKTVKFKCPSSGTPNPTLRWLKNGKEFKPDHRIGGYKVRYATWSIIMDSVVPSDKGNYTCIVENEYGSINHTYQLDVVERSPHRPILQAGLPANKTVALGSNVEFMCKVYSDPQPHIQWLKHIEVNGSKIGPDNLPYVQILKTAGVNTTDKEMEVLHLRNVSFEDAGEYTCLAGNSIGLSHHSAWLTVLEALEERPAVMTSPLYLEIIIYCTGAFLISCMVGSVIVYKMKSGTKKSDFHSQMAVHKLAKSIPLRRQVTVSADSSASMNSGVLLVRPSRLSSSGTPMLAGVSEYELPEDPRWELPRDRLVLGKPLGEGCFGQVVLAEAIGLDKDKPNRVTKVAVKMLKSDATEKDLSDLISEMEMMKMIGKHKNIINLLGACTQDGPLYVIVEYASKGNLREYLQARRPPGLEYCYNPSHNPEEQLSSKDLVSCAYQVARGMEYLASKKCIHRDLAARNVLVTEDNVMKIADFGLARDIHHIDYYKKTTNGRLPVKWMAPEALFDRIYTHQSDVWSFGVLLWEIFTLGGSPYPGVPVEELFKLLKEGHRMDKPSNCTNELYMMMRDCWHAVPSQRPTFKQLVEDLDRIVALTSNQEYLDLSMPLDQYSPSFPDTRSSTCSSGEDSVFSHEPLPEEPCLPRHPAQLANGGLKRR

KinomeScan kinase panel [4] = target: T4, KinomeScan kinase panel (Homo sapiens, UniProt P43405); details: 10 µM
T4 construct: purchased DiscoveRx (KinomeScan)

KinomeScan kinase panel [5] = target: T5, KinomeScan kinase panel (Homo sapiens, UniProt Q9Y2H1); details: NDR2, 10 µM; read-out: score (%)
T5 construct: purchased DiscoveRx (KinomeScan)
T5 sequence (Q9Y2H1 whole entry): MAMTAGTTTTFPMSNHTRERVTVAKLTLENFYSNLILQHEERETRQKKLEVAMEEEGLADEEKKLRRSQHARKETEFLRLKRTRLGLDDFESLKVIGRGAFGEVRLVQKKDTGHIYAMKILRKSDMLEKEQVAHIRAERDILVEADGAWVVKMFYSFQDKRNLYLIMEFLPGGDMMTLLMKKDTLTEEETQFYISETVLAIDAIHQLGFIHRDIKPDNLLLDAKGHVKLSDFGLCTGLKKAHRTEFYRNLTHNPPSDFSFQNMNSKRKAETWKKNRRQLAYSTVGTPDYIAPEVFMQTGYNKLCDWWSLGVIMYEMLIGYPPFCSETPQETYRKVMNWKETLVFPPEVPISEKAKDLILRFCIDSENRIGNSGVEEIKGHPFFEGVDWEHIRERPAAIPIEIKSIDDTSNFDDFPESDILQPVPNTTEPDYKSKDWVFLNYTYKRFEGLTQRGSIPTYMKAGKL

KinomeScan kinase panel [6] = target: T6, KinomeScan kinase panel (Homo sapiens, UniProt Q9P289); details: MST4, 10 µM; read-out: score (%)
T6 construct: purchased DiscoveRx (KinomeScan)
T6 sequence (Q9P289 whole entry): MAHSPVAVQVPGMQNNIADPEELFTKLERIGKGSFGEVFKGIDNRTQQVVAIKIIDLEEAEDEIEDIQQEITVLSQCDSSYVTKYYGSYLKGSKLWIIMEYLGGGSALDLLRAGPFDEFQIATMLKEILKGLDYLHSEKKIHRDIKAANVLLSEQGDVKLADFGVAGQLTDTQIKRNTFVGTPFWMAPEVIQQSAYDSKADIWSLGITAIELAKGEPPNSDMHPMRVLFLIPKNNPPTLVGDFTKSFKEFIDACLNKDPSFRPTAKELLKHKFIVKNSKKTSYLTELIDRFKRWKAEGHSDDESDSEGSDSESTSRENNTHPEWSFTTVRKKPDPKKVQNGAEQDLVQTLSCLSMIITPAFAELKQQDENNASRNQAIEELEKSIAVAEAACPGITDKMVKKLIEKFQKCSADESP

KinomeScan kinase panel [7] = target: T7, KinomeScan kinase panel (Homo sapiens, UniProt Q99640); details: PKMYT1, 10 µM
T7 construct: purchased DiscoveRx (KinomeScan)
T7 sequence (Q99640 1-499): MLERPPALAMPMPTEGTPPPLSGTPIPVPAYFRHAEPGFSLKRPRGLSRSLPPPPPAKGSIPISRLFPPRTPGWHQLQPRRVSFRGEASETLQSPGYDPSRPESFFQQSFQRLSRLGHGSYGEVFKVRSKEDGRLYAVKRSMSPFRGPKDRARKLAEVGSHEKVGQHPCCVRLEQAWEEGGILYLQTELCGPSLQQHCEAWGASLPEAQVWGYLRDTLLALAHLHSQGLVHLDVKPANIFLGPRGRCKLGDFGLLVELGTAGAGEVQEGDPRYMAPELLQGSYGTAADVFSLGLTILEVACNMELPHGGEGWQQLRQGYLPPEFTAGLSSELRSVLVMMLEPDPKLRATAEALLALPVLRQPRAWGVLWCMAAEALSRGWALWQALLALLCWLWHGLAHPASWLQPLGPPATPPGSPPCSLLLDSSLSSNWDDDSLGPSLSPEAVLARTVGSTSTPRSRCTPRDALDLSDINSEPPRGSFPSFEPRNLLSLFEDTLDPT

KinomeScan kinase panel [8] = target: T8, KinomeScan kinase panel (Homo sapiens, UniProt O15146); details: MUSK, 10 µM; read-out: score (%)
T8 construct: purchased DiscoveRx (KinomeScan)
T8 sequence (O15146 24-869): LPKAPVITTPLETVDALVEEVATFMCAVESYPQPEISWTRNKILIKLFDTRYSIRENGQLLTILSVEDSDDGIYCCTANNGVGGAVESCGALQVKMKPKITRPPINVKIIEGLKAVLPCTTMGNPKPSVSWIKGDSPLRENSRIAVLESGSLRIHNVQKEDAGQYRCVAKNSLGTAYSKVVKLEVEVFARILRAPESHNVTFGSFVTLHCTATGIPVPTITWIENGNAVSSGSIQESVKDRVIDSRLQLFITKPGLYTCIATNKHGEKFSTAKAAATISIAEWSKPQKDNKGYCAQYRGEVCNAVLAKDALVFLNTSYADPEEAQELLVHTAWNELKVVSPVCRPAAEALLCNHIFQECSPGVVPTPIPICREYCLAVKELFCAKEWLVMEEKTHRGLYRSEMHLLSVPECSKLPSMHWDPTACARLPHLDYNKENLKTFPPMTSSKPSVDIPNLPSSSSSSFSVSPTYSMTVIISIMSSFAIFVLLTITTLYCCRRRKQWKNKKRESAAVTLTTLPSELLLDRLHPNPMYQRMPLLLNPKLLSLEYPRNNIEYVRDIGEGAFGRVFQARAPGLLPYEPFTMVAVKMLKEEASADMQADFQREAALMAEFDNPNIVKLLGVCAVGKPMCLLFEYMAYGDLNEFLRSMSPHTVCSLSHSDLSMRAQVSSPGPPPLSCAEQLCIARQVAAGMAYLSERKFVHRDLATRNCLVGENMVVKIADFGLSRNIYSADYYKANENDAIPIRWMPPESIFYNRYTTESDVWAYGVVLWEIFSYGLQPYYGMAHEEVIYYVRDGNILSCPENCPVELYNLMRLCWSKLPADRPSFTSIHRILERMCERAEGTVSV

KinomeScan kinase panel [9] = target: T9, KinomeScan kinase panel (Homo sapiens, UniProt O14730); details: read-out: score (%)
T9 construct: purchased DiscoveRx (KinomeScan)
T9 sequence (O14730 1-519): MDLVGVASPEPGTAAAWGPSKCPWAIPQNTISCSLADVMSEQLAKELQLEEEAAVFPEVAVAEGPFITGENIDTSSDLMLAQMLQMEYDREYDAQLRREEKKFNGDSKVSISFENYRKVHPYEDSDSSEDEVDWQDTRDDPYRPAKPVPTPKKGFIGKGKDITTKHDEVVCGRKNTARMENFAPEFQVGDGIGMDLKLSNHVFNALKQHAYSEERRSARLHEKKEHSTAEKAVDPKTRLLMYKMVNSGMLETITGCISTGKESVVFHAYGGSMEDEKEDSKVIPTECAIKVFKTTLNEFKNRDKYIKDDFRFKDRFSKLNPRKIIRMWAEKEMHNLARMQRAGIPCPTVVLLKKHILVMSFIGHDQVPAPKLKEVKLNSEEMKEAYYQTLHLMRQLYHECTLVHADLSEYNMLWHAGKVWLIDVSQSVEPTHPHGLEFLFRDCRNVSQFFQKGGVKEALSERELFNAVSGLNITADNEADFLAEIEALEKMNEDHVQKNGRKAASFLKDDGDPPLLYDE

[10] = JAK1(JH1domain-catalytic), 10 µM

SMILES | score (%) (KinomeScan kinase panel [1]; kinase SNARK) | score (%) (KinomeScan kinase panel [2]) | score (%) (KinomeScan kinase panel [2]; [10]) | remaining binding at 10 µM (KinomeScan kinase panel [3]) [%] | score (%) (KinomeScan kinase panel [4]; kinase SYK) | remaining binding at 10 µM (KinomeScan kinase panel [5]) [%] | remaining binding at 10 µM (KinomeScan kinase panel [6]) [%] | score (%) (KinomeScan kinase panel [7]) | remaining binding at 10 µM (KinomeScan kinase panel [8]) [%] | remaining binding at 10 µM (KinomeScan kinase panel [9]; RIOK3, 10 µM) [%] | score (%) (KinomeScan kinase panel [1]; SNARK) | score (%) (KinomeScan kinase panel [2]; JAK1(Kin.Dom.1), 10 µM) | score (%) (KinomeScan kinase panel [2]; JAK1(Kin.Dom.2), 10 µM) | score (%) (KinomeScan kinase panel [4]; SYK) | score (%) (KinomeScan kinase panel [2]; JAK1(JH2domain-pseudokinase), 10 µM) | remaining binding at 10 µM (KinomeScan kinase panel [9]; kinase RIOK3, 10 µM) [%]
CCN1CCN(Cc2ccc(NC(=O)c3ccc(C)c(NC(=O)c4cncc(-c5cccs5)c4)c3)cc2C(F)(F)F)CC1 [ALW-II-41-27] | nb (Hits values higher than 30% were considered negative (no binding: nb)) | nb (Hits values higher than 30% were considered negative (no binding: nb)) | 14 | 2.2 | 4.2 | 11 | 12 | nb (Hits values higher than 30% were considered negative (no binding: nb)) | 0.1 | > 30 | – | – | – | – | – | –
CCN1CCN(Cc2ccc(NC(=O)c3ccc(C)c(/C=C/c4cnc5[nH]ccc5c4Cl)c3)cc2C(F)(F)F)CC1 [HG-6-63-01, (E)-3-(2-(4-chloro-1H-pyrrolo[2,3-b]pyridin-5-yl)vinyl)-N-(4-((4-ethylpiperazin-1-yl)methyl)-3-(trifluoromethyl)phenyl)-4-methylbenzamide] | – | – | – | 0.7 | – | > 30 | 32 | nb (Hits values higher than 30% were considered negative (no binding: nb)) | 0.05 | 0.35 | nb (Hits values higher than 30% were considered negative (no binding: nb)) | nb (Hits values higher than 30% were considered negative (no binding: nb)) | 11 | 1.8 | – | –
CCN1CCN(Cc2ccc(NC(=O)c3ccc(C)c(C#Cc4cccnc4)c3)cc2C(F)(F)F)CC1 [XMD15-44] | 99% | – | 6.2 | 0.25 | 13 | 8.7 | 21 | 85% | 0.05 | – | – | – | – | – | nb (Hits values higher than 30% were considered negative (no binding: nb)) | 70
